Experimental data from patent US20100168228A1, “NOVEL CHEMOTHERAPEUTIC AGENTS AGAINST INFLAMMATION AND CANCER” (RELIANCE LIFE SCIENCES PVT. LTD., priority 2006, published 2010).

Legend:
Jurkat cells [1] = assay: Cell cycle analysis (PI, flow cytometry), Jurkat; type: cell-based, human; details: for cell cycle distribution with time: 100 nM and 500 nM
Description: (§1) Cells (log phase culture) were treated with vehicles alone (similar volumes of DMSO) or with the compound (various concentrations) to be tested for 24 h. Untreated cells were also included in this experiment for comparison. After treatments, the cells were harvested and washed with cold EDTA/PBS (5 mmol/L). Cells were then resuspended in cold EDTA/PBS (300 μl) and 100% chilled ethanol (700 μl), vortexed, and incubated at room temperature for 1 h. Samples were centrifuged at 200×g for 5 minutes and the supernatant was removed. A solution containing propidium iodide (100 μg/ml) and RNase A (1 mg/ml) was added to the samples and incubated for 1 h at room temperature. Samples were then transferred to 12×75 mm polystyrene tubes and analyzed on flow cytometer. Flow cytometry analyses were done on FACSCalibur (Becton Dickinson, San Jose, Calif.) and data were analyzed using CellQuest analysis software.
as §1, with “Cells (log phase culture) were treated with vehicles alone (similar volumes of DMSO) or with the compound (various concentrations) to be tested for 24 h.” left out, “PBS.” for “EDTA/PBS (5 mmol/L).”, “PBS” for “EDTA/PBS”

RAW 264.7 cells = assay: Nitrite quantification (Griess) in LPS stimulated macrophages; type: cell-based, mouse; details: for CONCENTRATION OF NITRITE μM ± SD: RAW 264.7 + LPS (200 ng/ml) + 10 μM compound, 24 h, LPS + DMSO control 14.560, basal 0.782
Description: NO2^− accumulation was used as an indicator of Nitric Oxide (NO) production in the medium as described previously (Green et al., 1982 Anal Biochem 126, 131-138). […] The isolated supernatants were mixed with an equal volume of Griess reagent (1% sulfanilamide, 0.1% naphthylenediamine dihydrochloride, and 2% phosphoric acid) and incubated at room temperature for 15 min. NaNO2 was used to generate a standard curve, and nitrite production was determined by measuring the optical density at 540 nm.
To estimate the anti-inflammatory effects of all the synthetic molecules listed in this study, we measured the accumulation of nitrite, the stable metabolite of NO, in the culture media using Griess reagent.
To investigate the effect of CAMVE on NO production, we measured the accumulation of nitrite, the stable metabolite of NO, in the culture media using Griess reagent. To investigate the effect of CAMVE on NO production, Raw 264.7 cells, pretreated with indicated concentrations of CAMVE for 1 h were incubated with LPS (250 ng/ml) for 24 h.

Jurkat cells [2] = assay: PARP cleavage assay using flow cytometry, Jurkat; type: cell-based, human
Description: FIG. 8: CAMVE potentiates apoptosis induced by TNF or chemotherapeutic agents. A1. Jurkat cells were incubated at 37° C. with TNF, in the presence and absence of 10 μM of CAMVE for 72 h and the viable cells were assayed using MTT reagent. The results are shown as the mean±S.D. from triplicate culture. A2. Jurkat cells (1×10^6 cells/ml) were pretreated with CAMVE for 3 h as indicated and incubated with TNF for 24 hrs, and PARP cleavage was determined by FACS analysis as described in the “Materials and Methods”. […]
FIG. 15: Induction of apoptosis and PARP cleavage by compound 27. Jurkat cells were treated with 100 and 500 nM of the compound for indicated time period and PARP cleavage was determined using FACS analysis as described in the “Materials and Methods”. […]
Extent of PARP cleavage is determined using polyclonal antibody specifically recognizing the 85 kDa fragment of cleaved PARP (NSB 699 Novus Biologicals) and can be used as a marker for detecting apoptotic cells. […] Cells were washed twice with wash buffer (PBS+1% heat inactivated FBS) and analysed using FACS.
PARP Cleavage Assay using Flow Cytometry: Extent of PARP cleavage is determined using polyclonal antibody specifically recognizing the 85 kDa fragment of cleaved PARP (NSB 699 Novus Biologicals) and can be used as a marker for detecting apoptotic cells. […]

Jurkat cells [3] = assay: Cytotoxicity assay (MTT), Jurkat; type: cell-based, human
Description: FIG. 8: CAMVE potentiates apoptosis induced by TNF or chemotherapeutic agents. A1. Jurkat cells were incubated at 37° C. with TNF, in the presence and absence of 10 μM of CAMVE for 72 h and the viable cells were assayed using MTT reagent. The results are shown as the mean±S.D. from triplicate culture. A2. Jurkat cells (1×10^6 cells/ml) were pretreated with CAMVE for 3 h as indicated and incubated with TNF for 24 hrs, and PARP cleavage was determined by FACS analysis as described in the “Materials and Methods”. M2 gated population represents the percentage apoptotic population B. SA-LPS/Jkt cells pretreated with 10 μM of CAMVE for 3 h, were treated with 1 μM of cis-plastin, doxorubicin, taxol or vincristine for 72 h. The cytotoxicity was then assayed by MTT method. Results are shown as the mean±S.D. from triplicate samples.
FIG. 11: Dose response for compound 27 induced loss of cell viability and cell proliferation in Jurkat cell line. […] Error bars indicate±S.D.
Cytotoxicity was assayed by the modified tetrazolium salt 3-(4,5-dimethylthiazol-2-yl)-2,5-diphenyltetrazolium bromide (MTT) assay as described by Plumb, J A et al. (Cancer Res. 1989 Aug. 15; 49(16):4435-4440). […]

Row | SMILES | G2/M population (Jurkat cells [1]; 50 nM (data not shown)) | cell cycle distribution with time (Jurkat cells [1]; 48 and 72 h) | cell cycle distribution with time (Jurkat cells [1]; 24 h) | increase of cells in the G2/M phase (Jurkat cells [1]; 100 nM, 24 h) [%] | G2/M and sub G1 population (Jurkat cells [1]; concentration higher than 100 nM) | CONCENTRATION OF NITRITE μM ± SD (RAW 264.7 cells) [µM] | PARP cleavage (Jurkat cells [2]; 100 nM and 500 nM, increasing with time) | GI50 (Jurkat cells [3]; Homo sapiens, Jurkat, MTT, 24 h and 48 h, read-out: GI50 (concentration causing 50% growth inhibition)) [nM] | cell cycle distribution (Jurkat cells [1]; 5 μM, 24 h) | LPS induced nitrite production (RAW 264.7 cells; Raw 264.7 pretreated 1 h, LPS 250 ng/ml 24 h) | TNF induced PARP cleavage (apoptosis) (Jurkat cells [2]; pretreated 3 h, TNF 24 h) | cytotoxicity induced by chemotherapeutic agents (MTT) (Jurkat cells [3]; SA-LPS (100 ng/ml) activated Jurkat, 10 μM CAMVE 3 h, then 1 μM cis-platin, doxorubicin, taxol or vincristine 72 h)
1 | COc1cc([C@@H]2Oc3c(OC)cc(/C=C/C(=O)O)cc3[C@H]2C(=O)O)ccc1O [compound 27, 5-[(E)-2-carboxyvinyl]-2β-(4-hydroxy-3-methoxyphenyl)-7-methoxy-2,3-dihydro-1-benzofuran-3α-carboxylic acid] | no significant increase in G2/M population | significant decrease in the G2/M population | accumulated in G2/M after 24 h with a significant decrease in the G1 and S phase populations | ~50 | further increase in both G2/M and sub G1 population | 5.027 ± 0.200 | significant PARP cleavage was achieved at 100 nM and 500 nM | ~100 | – | – | – | –
2 | COC(=O)c1ccc(OC(=O)/C=C/c2ccc(O)c(O)c2)c(OC)c1 [compound 1, Methyl 4-{[(2E)-3-(3,4-dihydroxyphenyl)prop-2-enoyl]oxy}-3-methoxybenzoate] | – | – | – | – | – | 1.849 ± 0.214 | – | – | significant increase of cells in the G1 and compensatory decrease in the S phase | inhibited by CAMVE treatment in a dose-dependent manner | significant potentiation of PARP cleavage in a dose dependent manner | significantly enhanced by CAMVE pretreatment
